Test results published in ChEMBL document CHEMBL3600308, “Antiproliferative Trihydroxyalkylcyclohexenones from Pleiogynium timoriense” (J Nat Prod, 2015).
pIC50: −log10 of the molar value.

tested on: A2780; test: Antiproliferative activity against drug-sensitive human A2780 cells assessed as inhibition of cell growth after 2 days by Alamar Blue assay; assay type: functional, cell-based; settings: A2780, 48 h

| Structure (SMILES) | pIC50 |
| --- | --- |
| CCCCCCCC/C=C\CCCCCCCCCCC[C@]1(O)C(=O)C=C[C@H](O)[C@H]1O | 6.10 |
| CCCCCCCC/C=C\CCCCCCC[C@]1(O)C(=O)C=C[C@H](O)[C@H]1O | 6.10 |
| CCCCCCCC/C=C\CCCCCCCCC[C@]1(O)C(=O)C=C[C@H](O)[C@H]1O | 6.15 |
